In US20240140991A1, “ANTIBIOTIC NATURAL PRODUCT ANALOGUES” (THE QUEEN'S UNIVERSITY OF BELFAST, priority 2021, published 2024):
Converted amounts (≈) assume the structure as drawn. Positions of bridges follow the written chain, without caps; N, C: chain ends. Non-standard residues stand in square brackets, D forms with d. Residues, ends and D or L forms follow the SMILES beside them. ξ: configuration not given here. *: point of attachment. Octanoyl(7-Me) = CC(C)CCCCCC(=O)*; Hexanoyl(4ξ-Me) = CCC(C)CCC(=O)*; dOrn = NCCC[C@@H](N)C(=O)O; Octanoyl = CCCCCCCC(=O)*; Orn = NCCC[C@H](N)C(=O)O; Dap = NC[C@H](N)C(=O)O; Alloc = C=CCOC(=O)*

What follows are compounds tested on Escherichia coli ATCC 25922. Conditions: ATCC 25922.
Type: cell-based
Experimental: Minimum inhibitory concentration (MIC) was determined by broth microdilution according to CLSI guidelines. Blood agar plates were inoculated with glycerol stocks of Escherichia coli ATCC 25922, E. coli ATCC 25922 MCR-1, E. coli MCR-1 (clinical isolate from Utrecht Medical Center, NL), E. coli EQAS MCR-2 (clinical isolate from Wageningen University and Research, NL), Kiebsielia pneumoniae ATCC 11228, K. pneumoniae ATCC 13883, K. pneumonia 2048 (clinical isolate from Vrije Universiteit Amsterdam Medical Center, NL), K. pneumonia JS-123 (clinical isolate from Utrecht Medical Center, NL), Acinetobacter baumannii ATCC 17961, A. baumannil ATCC 17978, A. baumannii 2018-006 (clinical isolate from Rijksinstituut voor Volksgezondheid en Milieu, NL), A. baumannii MDR (clinical isolate from Vrije Universiteit Amsterdam Medical Center, NL), Pseudomonas aeruginosa ATCC 27853, P. aeruginosa PAO1, P. aeruginosa NRZ-03961 (Reference strain from Das Nationale Referenzzentrum für gramnegative Krankenhauserreger, DE), P. aeruginosa M-120 (clinical isolate from Leiden University Medical Center, NL) and Staphylococcus aureus USA300 (clinical isolate from Texas Children's Hospitalm, USA). E. coli 25922 MCR1 was grown on LB agar supplemented with kanamycin. The inoculated agar plates were then incubated for 16 hours at 37° C. Individually grown colonies were subsequently used to inoculate 3 mL aliquots of TSB that were then incubated at 37° C. with shaking at 220 rpm. In parallel, the compounds to be assessed were serially diluted with Mueller-Hinton broth (MHB) in polypropylene 96-well plates (50 μL in each well). Once the OD600 of the bacterial suspensions reached 0.5, the bacteria were diluted with MHB (final concentration 2×10^5 CFU mL^−1) and added to the microplates containing the test compounds (50 μL to each well, final volume: 100 μL). The well-plates were sealed with an adhesive membrane and after 16 hours of incubation at 37° C. with shaking at 220 rpm the wells were visually inspected for bacterial growth. MIC values were defined as the lowest concentration of the compound that prevented visible growth of bacteria.

CC[C@H](C)[C@@H]1NC(=O)[C@@H](NC(=O)[C@H](Cc2c[nH]c3ccccc23)NC(=O)[C@@H](CCCN)NC(=O)CNC(=O)[C@H](CCCN)NC(=O)[C@@H](CCCN)NC(=O)[C@@H](Cc2c[nH]c3ccccc23)NC(=O)[C@@H](Cc2ccc(O)cc2)NC(=O)[C@@H](CO)NC(=O)CCCCCC(C)C)[C@@H](C)OC(=O)[C@H](C)NC(=O)[C@H](CO)NC(=O)CNC1=O [Compound R9] ({Octanoyl(7-Me)}-[dS][dY][dW][dOrn][Orn]G[dOrn]WTIGSA; ester 9-C; N-terminus assumed) and CCC(C)CCC(=O)N[C@H](CO)C(=O)N[C@H](Cc1ccc(O)cc1)C(=O)N[C@H](Cc1c[nH]c2ccccc12)C(=O)N[C@H](CCCN)C(=O)N[C@@H](CCCN)C(=O)NCC(=O)N[C@H](CCCN)C(=O)N[C@@H](Cc1c[nH]c2ccccc12)C(=O)N[C@@H]1C(=O)N[C@@H]([C@@H](C)CC)C(=O)NCC(=O)N[C@@H](CO)C(=O)NCC(=O)O[C@@H]1C (stereo partly shown) [Compound R1] ({Hexanoyl(4ξ-Me)}-[dS][dY][dW][dOrn][Orn]G[dOrn]WTIGSG; ester 9-C; N-terminus assumed) cannot be ordered by “Minimum inhibitory concentration (MIC)” value: 1 to 2 µg/mL for the first, 2 µg/mL (≈ 1.29 µM) for the second.

CC[C@H](C)[C@H](NC(=O)[C@@H](NC(=O)[C@H](Cc1c[nH]c2ccccc12)NC(=O)[C@@H](CCCN)NC(=O)CNC(=O)[C@H](CCCN)NC(=O)[C@@H](CCCN)NC(=O)[C@@H](Cc1c[nH]c2ccccc12)NC(=O)[C@@H](Cc1ccc(O)cc1)NC(=O)[C@@H](CO)NC(=O)CCCCCC(C)C)[C@@H](C)O)C(=O)N[C@@H](CC(N)=O)C(=O)NCC(=O)NCC(=O)O [Linear Laterocidine (Thr9-COOH)] ({Octanoyl(7-Me)}-[dS][dY][dW][dOrn][Orn]G[dOrn]WTINGG-OH) and CC[C@H](C)[C@H](NC(=O)[C@@H](NC(=O)[C@H](Cc1c[nH]c2ccccc12)NC(=O)[C@@H](CCCN)NC(=O)CNC(=O)[C@H](CCCN)NC(=O)[C@@H](CCCN)NC(=O)[C@@H](Cc1c[nH]c2ccccc12)NC(=O)[C@@H](Cc1ccc(O)cc1)NC(=O)[C@@H](CO)NC(=O)CCCCCC(C)C)[C@@H](C)O)C(=O)N[C@@H](CC(N)=O)C(=O)NCC(=O)N[C@@H](C)C(N)=O [Ala13 (Gly→Ala), FA-sywoOGoWTINGA-CONH2] ({Octanoyl(7-Me)}-[dS][dY][dW][dOrn][Orn]G[dOrn]WTINGA-NH2) cannot be ordered by “Minimum inhibitory concentration (MIC)” value: 4 to 8 µg/mL for the first, 4 µg/mL (≈ 2.45 µM) for the second.

CCCCCCCC(=O)N[C@H](CO)C(=O)N[C@H](Cc1ccc(O)cc1)C(=O)N[C@H](Cc1c[nH]c2ccccc12)C(=O)N[C@H](CCCN)C(=O)N[C@@H](CCCN)C(=O)NCC(=O)N[C@H](CCCN)C(=O)N[C@@H](Cc1c[nH]c2ccccc12)C(=O)N[C@@H](CO)C(=O)N[C@H](C(=O)N[C@@H](CC(N)=O)C(=O)NCC(N)=O)[C@@H](C)CC [ΔG13-Ser9-C8] (Octanoyl-[dS][dY][dW][dOrn][Orn]G[dOrn]WSING-NH2) and CC[C@H](C)[C@H](NC(=O)[C@H](CN)NC(=O)[C@H](Cc1c[nH]c2ccccc12)NC(=O)[C@@H](CCCN)NC(=O)CNC(=O)[C@H](CCCN)NC(=O)[C@@H](CCCN)NC(=O)[C@@H](Cc1c[nH]c2ccccc12)NC(=O)[C@@H](Cc1ccc(O)cc1)NC(=O)[C@@H](CO)NC(=O)CCCCCC(C)C)C(=O)N[C@@H](CC(N)=O)C(=O)NCC(=O)NCC(N)=O [Dap9-CONH2] ({Octanoyl(7-Me)}-[dS][dY][dW][dOrn][Orn]G[dOrn]W[Dap]INGG-NH2) are the same in “Minimum inhibitory concentration (MIC)” value: 4 µg/mL (≈ 2.6 µM) for the first, 4 µg/mL (≈ 2.49 µM) for the second.

CC[C@H](C)[C@H](NC(=O)[C@@H](NC(=O)[C@H](Cc1c[nH]c2ccccc12)NC(=O)[C@@H](CCCN)NC(=O)[C@H](C)NC(=O)[C@H](CCCN)NC(=O)[C@@H](CCCN)NC(=O)[C@@H](Cc1c[nH]c2ccccc12)NC(=O)[C@@H](Cc1ccc(O)cc1)NC(=O)[C@@H](CO)NC(=O)CCCCCC(C)C)[C@@H](C)O)C(=O)N[C@@H](CC(N)=O)C(=O)NCC(=O)NCC(N)=O [Ala6 (Gly→Ala), FA-sywoOAoWTINGG-CONH2] ({Octanoyl(7-Me)}-[dS][dY][dW][dOrn][Orn]A[dOrn]WTINGG-NH2) and CC[C@H](C)[C@H](NC(=O)[C@@H](NC(=O)[C@H](Cc1c[nH]c2ccccc12)NC(=O)[C@@H](CCCN)NC(=O)CNC(=O)[C@H](CCCN)NC(=O)[C@@H](CCCN)NC(=O)[C@@H](Cc1c[nH]c2ccccc12)NC(=O)[C@@H](Cc1ccc(O)cc1)NC(=O)[C@@H](C)NC(=O)CCCCCC(C)C)[C@@H](C)O)C(=O)N[C@@H](CC(N)=O)C(=O)NCC(=O)NCC(N)=O [Ala1 (D-Ser→D-Ala), FA-aywoOGoWTINGG-CONH2] ({Octanoyl(7-Me)}-[dA][dY][dW][dOrn][Orn]G[dOrn]WTINGG-NH2) fall in the same range of “Minimum inhibitory concentration (MIC)” value: 4 to 8 µg/mL for the first, 4 to 8 µg/mL for the second.

C=CCOC(=O)NC[C@H](NC(=O)[C@H](Cc1c[nH]c2ccccc12)NC(=O)[C@@H](CCCN)NC(=O)CNC(=O)[C@H](CCCN)NC(=O)[C@@H](CCCN)NC(=O)[C@@H](Cc1c[nH]c2ccccc12)NC(=O)[C@@H](Cc1ccc(O)cc1)NC(=O)[C@@H](CO)NC(=O)CCCCCC(C)C)C(=O)N[C@H](C(=O)N[C@@H](CC(N)=O)C(=O)NCC(N)=O)[C@@H](C)CC [ΔG13-Dap(Alloc)9-isoC9] ({Octanoyl(7-Me)}-[dS][dY][dW][dOrn][Orn]G[dOrn]W[Dap](Alloc)ING-NH2) and C=CCOC(=O)NC[C@H](NC(=O)[C@H](Cc1c[nH]c2ccccc12)NC(=O)[C@@H](CCCN)NC(=O)CNC(=O)[C@H](CCCN)NC(=O)[C@@H](CCCN)NC(=O)[C@@H](Cc1c[nH]c2ccccc12)NC(=O)[C@@H](Cc1ccc(O)cc1)NC(=O)[C@@H](CO)NC(=O)CCCCCC(C)C)C(=O)N[C@H](C(=O)N[C@@H](CC(N)=O)C(=O)NCC(=O)NCC(=O)O)[C@@H](C)CC [Dap(Alloc)9-COOH] ({Octanoyl(7-Me)}-[dS][dY][dW][dOrn][Orn]G[dOrn]W[Dap](Alloc)INGG-OH) are the same in “Minimum inhibitory concentration (MIC)” value: 2 µg/mL (≈ 1.22 µM) for the first, 2 µg/mL (≈ 1.18 µM) for the second.

CC[C@H](C)[C@H](NC(=O)[C@H](CO)NC(=O)[C@H](Cc1c[nH]c2ccccc12)NC(=O)[C@@H](CCCN)NC(=O)CNC(=O)[C@H](CCCN)NC(=O)[C@@H](CCCN)NC(=O)[C@@H](Cc1c[nH]c2ccccc12)NC(=O)[C@@H](Cc1ccc(O)cc1)NC(=O)[C@@H](CO)NC(=O)CCCCCC(C)C)C(=O)N[C@@H](CC(N)=O)C(N)=O [ΔG12-G13-Ser9-isoC9] ({Octanoyl(7-Me)}-[dS][dY][dW][dOrn][Orn]G[dOrn]WSIN-NH2) and CC[C@H](C)[C@H](NC(=O)[C@H](CCC(N)=O)NC(=O)[C@H](Cc1c[nH]c2ccccc12)NC(=O)[C@@H](CCCN)NC(=O)CNC(=O)[C@H](CCCN)NC(=O)[C@@H](CCCN)NC(=O)[C@@H](Cc1c[nH]c2ccccc12)NC(=O)[C@@H](Cc1ccc(O)cc1)NC(=O)[C@@H](CO)NC(=O)CCCCCC(C)C)C(=O)N[C@@H](CC(N)=O)C(=O)NCC(=O)NCC(N)=O [Gln9-CONH2] ({Octanoyl(7-Me)}-[dS][dY][dW][dOrn][Orn]G[dOrn]WQINGG-NH2) are the same in “Minimum inhibitory concentration (MIC)” value: 4 µg/mL (≈ 2.68 µM) for the first, 4 µg/mL (≈ 2.43 µM) for the second.

CC[C@H](C)[C@H](NC(=O)[C@@H](NC(=O)[C@H](Cc1c[nH]c2ccccc12)NC(=O)[C@@H](CCCN)NC(=O)CNC(=O)[C@H](CCCN)NC(=O)[C@@H](CCCN)NC(=O)[C@@H](Cc1c[nH]c2ccccc12)NC(=O)[C@@H](Cc1ccc(O)cc1)NC(=O)[C@@H](CO)NC(=O)CCCCCC(C)C)[C@@H](C)O)C(=O)N[C@@H](C)C(=O)NCC(=O)NCC(N)=O [Ala11 (Asn→Ala), FA-sywoOGoWTIAGG-CONH2] ({Octanoyl(7-Me)}-[dS][dY][dW][dOrn][Orn]G[dOrn]WTIAGG-NH2) and CC(C)CCCCCC(=O)N[C@H](CO)C(=O)N[C@H](Cc1ccc(O)cc1)C(=O)N[C@H](Cc1c[nH]c2ccccc12)C(=O)N[C@H](CCCN)C(=O)N[C@@H](CCCN)C(=O)NCC(=O)N[C@H](CCCN)C(=O)N[C@@H](Cc1c[nH]c2ccccc12)C(=O)N[C@H](C(=O)N[C@@H](C)C(=O)N[C@@H](CC(N)=O)C(=O)NCC(=O)NCC(N)=O)[C@@H](C)O [Ala10 (Ile→Ala), FA-sywoOGoWTANGG-CONH2] ({Octanoyl(7-Me)}-[dS][dY][dW][dOrn][Orn]G[dOrn]WTANGG-NH2) are the same in “Minimum inhibitory concentration (MIC)” value: 16 µg/mL (≈ 10.1 µM) for the first, 16 µg/mL (≈ 10.1 µM) for the second.

For CC[C@H](C)[C@H](NC(=O)[C@@H](NC(=O)[C@H](C)NC(=O)[C@@H](CCCN)NC(=O)CNC(=O)[C@H](CCCN)NC(=O)[C@@H](CCCN)NC(=O)[C@@H](Cc1c[nH]c2ccccc12)NC(=O)[C@@H](Cc1ccc(O)cc1)NC(=O)[C@@H](CO)NC(=O)CCCCCC(C)C)[C@@H](C)O)C(=O)N[C@@H](CC(N)=O)C(=O)NCC(=O)NCC(N)=O [Ala8 (Trp→Ala), FA-sywoOGoATINGG-CONH2] ({Octanoyl(7-Me)}-[dS][dY][dW][dOrn][Orn]G[dOrn]ATINGG-NH2), the “Minimum inhibitory concentration (MIC)” value was >64 µg/mL.

Same assay, conditions: in vitro activity quoted in the in vivo section

Work on polymyxin B [reference compound] yielded an MIC values against E. coli ATCC 25922 of 0.5 µg/mL.
